Measurements from US20260184742A1, “PEPTIDES” (CAROCELL BIO LIMITED, priority 2022, published 2026).
Like-named read-outs stand apart in the source and are kept apart here. Where no end group is shown, it is not given here.

What was measured:
[1] = tested on: HLA (human leucocyte antigen) mismatched GvHD model; test: Skimune skin explant assay, HLA mismatched GvHD model; type: cell-based; settings: LNP formulation of the compound, added throughout the mixed lymphocyte reaction and spiked into the skin explant
[2] = tested on: AD phenotype of skin biopsies (white space; Filaggrin, Involucrin, TSLP); test: Atopic Dermatitis (AD) model in skin biopsies; type: cell-based; settings: for phenotype: donor ALC1373, 0.1 and 1.0 μg/ml, appeared an improvement above Clobetasol; for phenotype ("white space") analysis: 0.1, 1.0 and 2.5 μg/ml, not as apparent as Clobetasol
Experimental: The AD phenotype was assessed by measuring the intensity of the “white space” within the biopsies—this was increased from 20% in the media alone control to 80% on AD induction and reduced with Clobetasol (a topical corticosteroid) to 40%. All concentrations of the compound (JEL0305, JEL2603, JEL1103 or JEL0802) reduced the white space by between 50 and 60% as a similar trend to Clobetasol. Three further donors (ALC1373, ALC1366 and ALC1365) were used to develop atopic dermatitis after treatment with activated PBMC and a cytokine cocktail model and assessed phenotypically as well as by biomarker (Filaggrin, Involucrin and TSLP) by immunohistochemistry. For 2 donors (ALC1366 and ALC1365) Filaggrin and Involucrin were reduced compared non-AD induced skin biopsies in media alone. This is the expected response for AD induction. In the presence of the control drug Clobetasol the expression of Filaggrin and Involucrin was increased due to the drug reversing the AD phenotype. […] But this was not as apparent as Clobetasol more than likely due to the lipid formulation causing an upregulation of cytokines. […] Filaggrin results were inconclusive.

[3] = tested on: pro-inflammatory cytokines including Th1 (IFNγ, TNFα, IL-1β) and Th2 cytokines (IL-13 and IL-4)
[4] = tested on: human TNFα in activated M1-macrophages (THP1-derived, LPS-activated); test: In vitro anti-inflammatory activity (ELISA), TNFα as marker; type: cell-based; settings: compared with T0, 100 ng/mL
Experimental: The anti-inflammatory response of each free peptide and each peptide-polymer formulation was determined using TNFα as a marker. The anti-inflammatory bioactivity was assessed using enzyme-linked immunosorbent assay (ELISA) for quantitative detection of human TNFα in activated M1-macrophages. THP1 human monocytes were differentiated into macrophages (M0), which were then activated (overnight) with lipopolysaccharide (LPS) into M1-macrophages. LPS prompts the abundant production of many pro-inflammatory cytokines from macrophages, including TNF-α, which actively contributes to the inflammatory response. At the T0 and T4 (after 4 weeks storage at RT or 4° C.) time points, each JEL peptide and each JEL-polymer formulation was incubated in previously LPS-activated M1-macrophages for 24 h at 37° C. After incubation, supernatants were collected, centrifuged and stored at −80° C. in readiness for the enzyme-linked immunosorbent assay (ELISA). Each supernatant sample was defrosted and the ELISA assay undertaken according to the Invitrogen protocol. FIGS. 1-4 show the concentrations of human TNFα detected by ELISA after incubation with each free and polymer loaded peptide at a concentration of 100 ng/mL.

[5] = tested on: pro-inflammatory cytokines including Th1 (IFNγ, TNFα, IL-1β) and Th2 cytokines (IL-13 and IL-4); test: Cytokine levels from the Skimune assays; settings: current concentrations and lipid formulation; GvHD type assays
[6] = after 4 weeks storage at room temperature (RT)
[7] = donors ALC1366 and ALC1365, compound at 0.1, 1.0 and 2.5 μg/ml

In the case of HKSRARLIFHEGPCGVRR [JEL1103], the “Graft versus Host reaction grade” value [1] is reported as “Grade III”, the “inhibition of the Graft versus Host response” value [1] is reported as “no inhibition” and the phenotype [2] is reported as “some improvement of the phenotype”. The “phenotype ("white space") analysis” value ([2]; donors ALC1366 and ALC1365) was “improved and reversal of damage”, the pro-inflammatory cytokines [3] was “significant increases” and the “anti-inflammatory activity (human TNFα detected by ELISA) after storage” value (“anti-inflammatory activity” for short) ([4]; after 4 weeks storage at 4° C.) was “maintained”. For the same molecule, the “anti-inflammatory activity” value [4, 6] was “maintained”.
`C[C@H]1C[C@H]2[C@@H]3CCC4=CC(=O)C=C[C@]4(C)[C@@]3(F)[C@@H](O)C[C@]2(C)[C@@]1(O)C(=O)CCl` [Clobetasol, reference compound] was tested, and the “intensity of the "white space" within the biopsies” value ([2]; 20% in media alone control, 80% on AD induction) was 40%, the “Filaggrin expression by immunohistochemistry” value [2, 7] was “increased” and the “Involucrin expression by immunohistochemistry” value [2, 7] was “increased”.
For “SRALLIFQKI [JEL0802, Ser-Arg-Ala-Leu-Leu-Ile-Phe-Gln-Lys-Ile]”, the pro-inflammatory cytokines [5] was “significant increases”.
“VSRATRIFKLSQLRGQCA [JEL0305, Val-Ser-Arg-Ala-Thr-Arg-Ile-Phe-Lys-Leu-Ser-Gln-Leu-Arg-Gly-Gln-Cys-Ala]” was tested, and the pro-inflammatory cytokines [5] was “significant increases”.
In the case of SRALKIFLATRKDRSPWH [JEL2603], the “Graft versus Host reaction grade” value [1] is reported as “Grade III”, the “inhibition of the Graft versus Host response” value [1] is reported as “no inhibition” and the phenotype [2] is reported as “some improvement of the phenotype”. For the same molecule, the “phenotype ("white space") analysis” value ([2]; donors ALC1366 and ALC1365) was “improved and reversal of damage”, the pro-inflammatory cytokines [3] was “significant increases” and the “anti-inflammatory activity” value ([4]; after 4 weeks storage at 4° C.) was “some diminution of anti-inflammatory activity”. The “anti-inflammatory activity” value [4, 6] was “activity is lost”.
